Reference: patent publication US20260151457A1, “Peptides and Fragments for Treating Diabetes and Associated Metabolic Diseases” (Betavive Ltd., priority 2024, published 2026)

How the values were obtained:
STZ-treated mice [1] = assay: Short term effects of a single IGF-2 injection on glucose and IGF-2 levels in STZ-treated mice; assay type: in vivo
Method: More specifically, the top panel illustrates the drop in glucose blood levels in three STZ-treated mice after receiving a 800 μg/kg/day dose of IGF-2 over a 240 minute time course. […] IGF-2 is part of a complex system comprising IGF-1 and IGF-2 along with binding proteins, proteases and other interacting molecules. A single 800 μg/kg dose of IGF-2 injected intraperitoneally lowers hyperglycemic blood glucose levels of 300-500 mg/dl to a normal level (100-200 mg/dL) for periods of over four hours. Normoglycemia is maintained while total serum IGF-2 is reduced to very low levels. […] Without being bound by this theory, it is believed that a slow release of IGF-2 from a serum complex can maintain normal blood glucose levels.

[2] = Blood concentration of IGF-2 after 40 μg intraperitoneal injection (ELISA); assay type: in vivo, mouse; conditions: 240 minute time frame
Excerpt: Without being bound by this theory, it is believed that IGF-2 binding proteins may initially inactivate the biological activity of free IGF-2. And over time, the bond between IGF-2 and the binding protein may be released, increasing the bioavailability of IGF-2 and leading to a longer term effective treatment.

NOD mice = assay: Islet cell staining for glucagon and insulin in NOD mice; assay type: in vivo; conditions: NOD mice treated with IGF-2 for 13 weeks
Excerpt: FIG. 30D confirms the results shown in FIG. 30C and provides the number of cells staining positive for insulin in NOD mice treated with IGF-2 (right bar) versus untreated NOD mice (left bar).

C57BL/6 STZ mice = assay: Fasting blood glucose in STZ-induced diabetic C57BL/6 mice treated with IGF-2; assay type: in vivo; conditions: IGF-2 12,000 μg/kg daily on each of 12 consecutive days
db/db mice [3] = assay: Serum insulin in db/db mice after long-term IGF-2 treatment; assay type: in vivo; conditions: 12,000 μg/kg daily for 68 days, measured 6.5 weeks after end of treatment
Method: In this experiment, one group of db/db mice (labeled FA X1) was injected with 3000 μg/kg of IGF-2 once a day for 68 days, a second group of db/db mice (labeled FA X4) was injected with a daily dose of 12000 μg/kg of IGF-2 divided in two injections per day for 68 days, and a third group of db/db mice was injected with saline. Serum insulin levels were measured 6.5 weeks after the end of the 68 day treatment. Treatment with the 12,000 μg/kg daily dose increased serum insulin levels by about 50% with respect to the control.

STZ-treated mouse islets = assay: MTT viability of STZ-treated mouse islets; assay type: cell-based; conditions: increasing concentrations
Excerpt: Yellow dye MTT is converted to a purple dye by mitochondrial reductase in viable cells. Therefore, the amount of purple dye present determined by measuring optical density of cells at 570 nm serves as a measurement of cell viability.

STZ-treated mice [4] = assay: Serum insulin and c-peptide levels in STZ-treated mice four weeks after IGF-2 treatment; assay type: in vivo; conditions: four weeks post treatment
Method: Fasting blood glucose levels (mg/dL) were determined using the Accu-Chek Performa glucometer (Roche Diagnostics, Mannheim, Germany). After approximately two weeks of stable hyperglycemia, C57BL/6 STZ mice received exogenous injections of recombinant human IGF-2 (0.3-12 mg/kg/day injection) intraperitoneally for 5-10 consecutive days. During post-treatment follow-up period and upon termination, mice were tested for: fasting glucose, body weight, glucose tolerance test (IPGTT), serum C-peptide level, serum insulin level, and full blood and histological analysis (CBC, Chemistry, Insulin IHC and H&E).
C-peptide is a biomarker used to assess pancreatic beta cell function and is normally produced in equimolar amounts to endogenous insulin. Leighton et al., A Practical Review of C-Peptide Testing in Diabetes, Diabetes Ther. 2017 June; 8 (3): 475-487.

Beta-TC-6 cells = assay: Insulin secretion assay using Beta-TC-6 cells; assay type: cell-based; conditions: 2 hours, 500 mM of each peptide, Mouse Insulin ELISA
Method: To evaluate insulin secretion in response to peptide treatment, Beta-TC-6 cells were plated in 96-well culture plates at a density of 8×10^4 cells per well. After 48 hours of incubation, the cells were washed and preincubated in serum-free medium for 1 hour. Following this, cells were treated for 2 hours with 200 μl of serum-free medium supplemented with […] of each peptide. After the treatment period, the induction medium was collected and stored at −80° C. until analysis. Insulin levels in the collected medium were measured using the Mercodia Mouse Insulin ELISA Kit (#10-1247-01) according to the manufacturer's instructions. […] Results appear in FIG. 36.

[5] = system: human pancreatic islet cells; assay: Insulin secretion of human pancreatic islet cells in response to a glucose pulse; assay type: cell-based; conditions: IGF-2 50 nM for four days
db/db mice [6] = assay: 14 hour fasting blood glucose in db/db mice treated with IGF-2; assay type: in vivo
Method: db/db mice are bred to have a leptin deficiency, increasing susceptibility of the mice to obesity, insulin resistance, and type 2 diabetes (T2D).
In this experiment, one group of db/db mice was injected with 3000 μg/kg/day of IGF-2 for 68 days, a second group of db/db mice was injected with 12000 μg/kg/day of IGF-2 for 66 days, and a third group of db/db mice was injected with saline once a day for 68 days.
In one experiment (left panel), one group of db/db mice was injected with a daily dose of 12000 μg/kg of IGF-2 divided in two injections per day for 70 days, while another group of db/db mice was injected with saline. […] In another experiment (right panel), one group of db/db mice was injected with a daily dose of 12000 μg/kg of IGF-2 divided in two injections per day for 35 days, while another group of db/db mice was injected with saline.
In one exemplary experiment, db/db mice were treated with a 12,000 μg/kg daily dose for 70 days with 70 days of follow up (during which IGF-2 was not administered). All the treated mice maintained normoglycemia for at least 50 days following treatment. In another exemplary experiment, db/db mice were treated with a 12,000 μg/kg daily dose for 35 days with 35 days of follow up (during which IGF-2 was not administered). All the treated mice maintained normoglycemia for 35 days following treatment.

STZ-treated mice [7] = assay: Pancreas histology and insulin immunohistochemistry in STZ-treated mice; assay type: in vivo
Method: FIG. 21 depicts pancreas histology results on STZ-treated mice. […] The non-control mice were treated once a day for 10 days with a 3000 μg/kg dose of IGF-2. The mice were sacrificed on day 35 and pancreas cells were assessed as being insulin positive or negative.

[8] = single 800 μg/kg dose injected intraperitoneally

## insulin-like growth factor 2 [IGF-2]
STZ-treated mice [1]; 800 μg/kg dose, 240 minute time course
  Free IGF-2 levels relative to total IGF-2: a small fraction of the total IGF-2 concentration
STZ-treated mice [1]; [8]
  Blood glucose level reached from hyperglycemic 300-500 mg/dl: 100 to 200 mg/dL
  Period of normal blood glucose level after a single dose: over four
[2]
  Free IGF-2 in the blood (peak): 1 µg
  Peak total concentration of IGF-2 in the blood: about 16 μg
NOD mice
  Islet cells (histological staining for glucagon and insulin): fully functional islet cells
C57BL/6 STZ mice
  Long-term improvements in blood glucose levels: long-term improvements in blood glucose levels were obtained
db/db mice [3]
  Increase in serum insulin levels with respect to the control: about 50%
STZ-treated mouse islets
  Mouse islet viability (MTT, optical density at 570 nm): increased in a dose dependent manner
STZ-treated mice [4]; four STZ-treated mice
  Increase in c-peptide levels: 12 fold
STZ-treated mice [4]; permanently cured mice
  Increase in serum insulin compared to STZ treated control mice: 50%
Beta-TC-6 cells
  Insulin secretion compared to the control: enhanced insulin secretion compared to the control
[5]
  Increase in insulin secretion in response to a glucose pulse compared to untreated cells: ~50%
db/db mice [6]; 3000 μg/kg/day for 68 days, first group b178, second group b179
  14 hour fasting blood glucose levels: reduced blood glucose levels (14 hour fasting blood glucose levels) to a normal range even after the end of the 68 day treatment period
db/db mice [6]; 12,000 μg/kg daily for 35 days, 35 days of follow up
  Time all treated mice maintained normoglycemia following treatment: 35 days
db/db mice [6]; 12,000 μg/kg daily for 70 days, 70 days of follow up
  Time all treated mice maintained normoglycemia following treatment: at least 50 days
db/db mice [6]; 12000 μg/kg daily in two injections per day for 35 days
  14 hour fasting blood glucose levels: reduced blood glucose levels (14 hour fasting blood glucose levels) to a normal range even after the end of the 35 day treatment period
db/db mice [6]; 12000 μg/kg daily in two injections per day for 70 days
  14 hour fasting blood glucose levels: reduced blood glucose levels (14 hour fasting blood glucose levels) to a normal range even after the end of the 70 day treatment period
db/db mice [6]; 12000 μg/kg/day for 66-68 days, first group b178, second group b179
  14 hour fasting blood glucose levels: reduced blood glucose levels (14 hour fasting blood glucose levels) to a normal range even after the end of the 68 day treatment period
STZ-treated mice [7]; non-permanently cured mouse
  Level of insulin in pancreas islets compared to a naïve mouse (IHC): lower level of insulin in its pancreas islets
STZ-treated mice [7]; permanently cured mice, 3000 μg/kg once a day for 10 days, sacrificed on day 35
  Increase in the number of functional beta cells: four
STZ-treated mice [7]; permanently cured mouse
  Level of insulin in pancreas islets compared to a naïve mouse (IHC): higher level of insulin in its pancreas islets
